Experimental data: the NIST ThermoML archive (doi:10.1016/j.jct.2014.03.023)

Assays:
[1] = wn = mass fraction of the nth substance listed; settings: Pendant drop shape
[2] = molar heat capacity at constant pressure; wn = mass fraction of the nth substance listed; settings: 101 kPa, Liquid, Small sample (50 mg) DSC

CC[n+]1ccc(C)cc1.O=S(=O)([N-]S(=O)(=O)C(F)(F)F)C(F)(F)F + CCn1cc[n+](C)c1.N#CN=C=[N-]
Settings	molar heat capacity at constant pressure, w2 = 0 [J/K/mol]	molar heat capacity at constant pressure, w2 = 0.25 [J/K/mol]	molar heat capacity at constant pressure, w2 = 0.5 [J/K/mol]	molar heat capacity at constant pressure, w2 = 0.75 [J/K/mol]	surface tension liquid-gas, w2 = 0 [mN/m]	surface tension liquid-gas, w2 = 0.25 [mN/m]	surface tension liquid-gas, w2 = 0.5 [mN/m]	surface tension liquid-gas, w2 = 0.75 [mN/m]
[1], 298.2 K	–	–	–	–	24.3	40.8	45.8	52
[1], 303.2 K	–	–	–	–	23.9	40.3	45.3	51.5
[1], 313.2 K	–	–	–	–	23.1	39.2	44.1	50.3
[1], 323.2 K	–	–	–	–	22.2	38	42.8	49
[2], 296.2 K	627	504	421	363	–	–	–	–
[2], 300.2 K	634	509	425	366	–	–	–	–
[2], 304.2 K	637	512	427	369	–	–	–	–
[2], 308.2 K	640	514	430	371	–	–	–	–
[2], 312.2 K	644	517	433	374	–	–	–	–
[2], 316.2 K	647	520	436	376	–	–	–	–
[2], 320.2 K	649	522	438	378	–	–	–	–
[2], 324.2 K	652	524	441	381	–	–	–	–
[2], 328.2 K	655	528	444	383	–	–	–	–
[2], 332.2 K	659	532	448	387	–	–	–	–
[2], 336.2 K	665	537	451	390	–	–	–	–
[2], 340.2 K	669	541	455	393	–	–	–	–
[2], 344.2 K	674	546	459	397	–	–	–	–
[2], 348.2 K	679	550	463	400	–	–	–	–
[2], 352.2 K	685	555	467	404	–	–	–	–
[2], 356.2 K	691	560	472	407	–	–	–	–
[2], 360.2 K	697	565	477	411	–	–	–	–
[2], 364.2 K	703	570	481	415	–	–	–	–
[2], 368.2 K	708	576	486	419	–	–	–	–
[2], 372.2 K	715	584	492	424	–	–	–	–
